Source: US20150045322A1, “COMBINATION TREATMENT COMPRISING SULPHATED GLYCOSAMINOGLYCANS FOR INDUCING LABOR” (DILAFOR AB, priority 2012, published 2015)
Positions of bridges follow the written chain, without caps; N, C: chain ends. Non-standard residues stand in square brackets, D forms with d. Residues, ends and D or L forms follow the SMILES beside them. Orn = NCCC[C@H](N)C(=O)O; Mpa = O=C(O)CCS

Assays:
[1] = tested on: Human uterine smooth muscle cells; assay: Intracellular Ca2+ with Fluo-4 and confocal live cell imaging; type: cell-based
From the text: Human uterine smooth muscle cells were established in a culture. A method to measuring intracellular Ca^2+ with the calcium indicator dye Fluo-4 and live cell imaging with confocal microscopy was established for the cells.

[2] = comparison value for heparin, species not stated; cited from earlier work

In the case of NCCOB(c1ccccc1)c1ccccc1 [2-APB, 2-Aminoethoxydiphenyl borate], the “effect on oxytocin and oxytocin/DF01 stimulated Ca2+-transport” value ([1]; 100 μM, 30 min of incubation) is reported as “decreased strongly”.

In the case of CCOc1ccc(C[C@H]2NC(=O)CCSSC[C@@H](C(=O)N3CCC[C@H]3C(=O)N[C@@H](CCCN)C(=O)NCC(N)=O)NC(=O)[C@H](CC(N)=O)NC(=O)[C@H]([C@@H](C)O)NC(=O)[C@H]([C@@H](C)CC)NC2=O)cc1 [Atosiban] ([Mpa][dY](Et)ITNCP[Orn]G-NH2; disulfide 1-6), the “effect on Ca2+ transport by oxytocin and the combination oxytocin/DF01” value ([1]; 10^−6 M) is reported as “clearly inhibited”.

In the case of CC[C@H](C)[C@@H]1NC(=O)[C@H](Cc2ccc(O)cc2)NC(=O)[C@@H](N)CSSC[C@@H](C(=O)N2CCC[C@H]2C(=O)N[C@@H](CC(C)C)C(=O)NCC(N)=O)NC(=O)[C@H](CC(N)=O)NC(=O)[C@H](CCC(N)=O)NC1=O [oxytocin], the “concentration giving maximum effect on Ca2+-influx to the cytosol” value ([1]; dose-dependent effect) is reported as 0.05 IU/ml.

For heparin, the “corresponding (subcutaneous) bioavailability” value [2] is listed as “about 10%”.
